The record followed here is patent US9115144B2, “Fused heterocyclic derivative and pharmaceutical use thereof” (KISSEI PHARMACEUTICAL CO., LTD., priority 2011, dated 2015).

As usually defined, the IC50 is the concentration needed to halve the response being measured. High values mean weaker potency, low ones greater potency. The inhibition is the share of the control response that was lost under treatment.

A value given as a limit tells only on which side of the number the result lay.

For test [1], the target named is Xanthine oxidase (from bovine milk, Sigma) (Bos taurus (Bovine), UniProt P80457). In words: Xanthine oxidase inhibitory activity. Format: biochemical. The conditions noted are these: xanthine 200 μM added at 100 μL/well, 10 minutes at room temperature, absorbance at 290 nm. Here is the method: Xanthine Oxidase Inhibitory Activity
Xanthine oxidase (from bovine milk, Sigma), sequence (P80457 whole entry): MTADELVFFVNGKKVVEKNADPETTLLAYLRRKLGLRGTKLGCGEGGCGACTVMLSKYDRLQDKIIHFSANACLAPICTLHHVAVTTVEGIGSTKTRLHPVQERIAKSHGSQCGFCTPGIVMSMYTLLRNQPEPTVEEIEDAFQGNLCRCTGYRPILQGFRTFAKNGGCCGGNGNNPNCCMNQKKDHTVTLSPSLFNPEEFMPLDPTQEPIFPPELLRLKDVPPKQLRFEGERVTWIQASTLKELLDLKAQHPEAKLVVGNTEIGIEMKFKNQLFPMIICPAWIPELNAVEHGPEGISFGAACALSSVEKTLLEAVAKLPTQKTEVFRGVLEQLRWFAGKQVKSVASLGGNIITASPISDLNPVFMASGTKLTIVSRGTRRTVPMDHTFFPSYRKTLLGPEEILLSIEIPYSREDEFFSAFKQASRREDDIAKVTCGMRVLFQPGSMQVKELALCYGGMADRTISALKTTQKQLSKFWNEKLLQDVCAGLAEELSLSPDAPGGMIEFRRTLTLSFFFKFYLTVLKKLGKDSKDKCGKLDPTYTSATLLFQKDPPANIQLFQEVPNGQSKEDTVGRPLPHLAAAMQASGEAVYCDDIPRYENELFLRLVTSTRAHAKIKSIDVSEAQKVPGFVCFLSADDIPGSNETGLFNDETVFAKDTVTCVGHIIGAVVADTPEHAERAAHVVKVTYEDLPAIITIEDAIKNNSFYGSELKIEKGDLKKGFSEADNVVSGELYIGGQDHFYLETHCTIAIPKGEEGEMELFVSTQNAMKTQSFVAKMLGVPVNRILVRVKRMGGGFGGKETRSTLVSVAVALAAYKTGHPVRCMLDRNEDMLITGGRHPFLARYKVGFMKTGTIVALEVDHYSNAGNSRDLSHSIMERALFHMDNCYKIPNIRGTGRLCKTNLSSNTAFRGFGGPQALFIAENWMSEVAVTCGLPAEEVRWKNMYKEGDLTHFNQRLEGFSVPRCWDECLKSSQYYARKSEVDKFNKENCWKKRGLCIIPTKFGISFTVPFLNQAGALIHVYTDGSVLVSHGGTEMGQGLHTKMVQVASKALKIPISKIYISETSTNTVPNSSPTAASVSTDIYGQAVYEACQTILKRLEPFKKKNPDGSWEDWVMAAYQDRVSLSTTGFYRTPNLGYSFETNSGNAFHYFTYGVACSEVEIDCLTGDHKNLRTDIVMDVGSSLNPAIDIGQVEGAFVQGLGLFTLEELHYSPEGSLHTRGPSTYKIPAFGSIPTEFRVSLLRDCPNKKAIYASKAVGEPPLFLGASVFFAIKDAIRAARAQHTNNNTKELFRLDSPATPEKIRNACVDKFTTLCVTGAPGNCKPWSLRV
(1) Preparation of Test Compounds
Test compounds were dissolved in dimethyl sulfoxide (DMSO) (manufactured by Wako pure chemical) at 40 mM concentration and then diluted to intended concentrations with phosphate-buffered saline (PBS).
(2) Method for Measurement
Xanthine oxidase (from bovine milk, Sigma) was prepared with phosphate-buffered saline (PBS) at 0.02 units/mL, and then the solution was added to 96 well plates at 50 μL/well. In addition, test compounds diluted with PBS were added at 50 μL/well. Xanthine (manufactured by Wako pure chemical) at 200 μM prepared with PBS was added at 100 μL/well, and the reaction was conducted for 10 minutes at room temperature. Absorbance at 290 nm was measured by using a microplate reader SpectraMax Plus 384 (manufactured by Molecular device). The absorbance under a condition without xanthine is 0%, and control without test compounds is 100%. Fifty % inhibitory concentration of a test compounds (IC50) was calculated (Table 5). “Ex. No.” in the table indicates Example number.

The next test addresses human URAT1 (Homo sapiens (Human), UniProt Q96S37). Nature of the test: Inhibitory activity of uric acid transport with human URAT1 expressing cells. In kind it is cell-based. To be noted: 10 μM test compound; URAT1-expressing HEK293 cells; 14C uric acid 50 μM, 2 minutes at 37° C.; read-out: Percent inhibition of uric acid uptake. Here is the method: Inhibitory Activity of Uric Acid Transport with Human URAT1 Expressing Cells
(1) Cells Used in the Test
URAT1-expressing HEK293 cells (HEK293 cells transfected with vector containing human URAT1 cDNA) and control cells (HEK293 cells transfected with vector alone) were used.
URAT1-expressing cells and control cells were seeded in collagen I-coated 24-well plates (manufactured by Becton, Dickinson and Company) at 1 to 4×10^5 cells/well, and cultured in CO2 incubator (37° C., CO2: 5%) for 1 to 3 days, and then the following measurement of uric acid transport was conducted. […]
After the medium was removed from the plates in which cells were seeded, and 1 mL of HBSS was added to the cells. […] The radioactivity was measured by means of a liquid scintillation counter. […]
Protein concentration in the cell lysates was determined by BCA Protein Assay Kit (manufactured by Pierce) and then amount of protein (mg/well) was calculated. […]
Uric acid uptake activity in each well was calculated by the following formula. Uric acid uptake activity (p mol/mg protein)=radioactivity (dpm/well)/[amount of protein (mg/well)×concentration of radioactivity in HBSS containing ^14C uric acid (dpm/p mol)]
Percent inhibition was calculated according to the following formula. […]

human URAT1, sequence (Q96S37 whole entry): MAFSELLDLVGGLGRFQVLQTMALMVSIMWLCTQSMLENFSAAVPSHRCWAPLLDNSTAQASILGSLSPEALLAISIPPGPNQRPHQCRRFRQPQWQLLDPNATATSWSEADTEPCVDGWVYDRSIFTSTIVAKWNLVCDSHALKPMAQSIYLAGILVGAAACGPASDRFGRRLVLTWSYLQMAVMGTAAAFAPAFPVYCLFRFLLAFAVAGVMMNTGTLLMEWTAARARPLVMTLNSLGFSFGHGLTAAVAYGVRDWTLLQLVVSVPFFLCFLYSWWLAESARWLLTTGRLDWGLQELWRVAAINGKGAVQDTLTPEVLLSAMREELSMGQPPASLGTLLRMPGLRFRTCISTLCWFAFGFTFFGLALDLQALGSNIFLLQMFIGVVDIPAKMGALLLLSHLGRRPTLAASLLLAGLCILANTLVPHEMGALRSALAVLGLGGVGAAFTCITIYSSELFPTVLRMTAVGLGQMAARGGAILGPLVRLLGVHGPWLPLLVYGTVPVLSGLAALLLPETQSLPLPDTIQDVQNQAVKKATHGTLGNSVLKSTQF

As to `N#Cc1cn(-c2ccc(C(=O)O)c(O)c2)c2sccc12` [Example 9], in test [1], the IC50 stood at 0.013 µM. Moreover, the inhibition at 10 µM at human URAT1 was at least 50%. `Cc1cc2c(s1)c(C#N)cn2-c1ccc(C(=O)O)c(O)c1` [Example 1, 4-(6-Cyano-2-methyl-thieno[3,2-b]pyrrol-4-yl)-2-hydroxybenzoic acid]: the IC50 in test [1] was 0.013 µM. Molecule `N#Cc1cn(-c2ccc(C(=O)O)c(O)c2)c2ccsc12` [Example 5, 4-(6-Cyano-thieno[3,2-b]pyrrol-4-yl)-2-hydroxybenzoic acid] showed an IC50 in test [1] of 0.01 µM. The same measure, in the same setting: the same measure for `N#Cc1cn(-c2ccc(C(=O)O)c(O)c2)c2cscc12` [Example 7]: 0.01 µM; for `N#Cc1cn(-c2ccc(C(=O)O)c(O)c2)c2sc(Br)cc12` [Example 8]: 0.014 µM.
